Publication PMC5882164, “A novel calcimimetic agent, evocalcet (MT-4580/KHK7580), suppresses the parathyroid cell function with little effect on the gastrointestinal tract or CYP isozymes in vivo and in vitro” (PLoS ONE, 2018)
Values joined by “and” are separate entries in the source; they are usually repeats but may differ in a detail not shown here. Equal entries are not always repeated.

What was measured:
serum PTH [1] = assay: Normal rat study: serum PTH level after oral administration; format: in vivo; conditions: normal rats
Description: (§1) After acclimatization, rats were divided into nine groups (n = 10/group) matched in terms of body weight, and their serum PTH and calcium levels. Vehicle, 0.5% (w/v) methyl cellulose (Wako Pure Chemical Industries, Ltd.) solution orally administered to vehicle treatment group rats. Evocalcet (0.03, 0.1, 0.3, or 1 mg/kg), or cinacalcet (1, 3, 10, or 30 mg/kg) were suspended in the vehicle solution and orally administered to each drug treatment group. Blood samples were collected from the tail vein before and at 0.5, 2, 4, 6, 8, and 24 h after the oral administration.
(§2) The serum PTH level was measured using a Rat Intact PTH ELISA kit (Immutopics, Inc., San Clemente, CA). The serum calcium, phosphate and BUN levels were measured using an auto analyzer (Hitachi High-Technologies Corporation., Tokyo, Japan) or the following test kits: the Calcium E-test WAKO, the Phospha C-test WAKO, or the Blood Urea nitrogen B-test WAKO (Wako Pure Chemical Industries, Ltd., Osaka, Japan).

serum calcium = assay: Normal rat study: serum calcium level after oral administration; format: in vivo; set-up: Serum Ca: unit not given here; conditions: normal rats
Description: as §1, §2

gastric emptying = assay: Evaluation of gastric emptying in rats (phenol red); format: in vivo, rat
Description: The study of gastric emptying in rats was performed by referencing a previously reported method. […] The rats were divided into eight body-weight-matched groups (n = 8/group). […] Ten minutes later, 0.05 w/v% phenol red, a non-absorbable marker solution (1.5 mL/body), was orally administered. Thirty minutes after the administration of phenol red, the rats were euthanized by cervical dislocation, and the gastric body clamped at the cardiac and pyloric part of the stomach was obtained. The stomach was homogenized by adding 0.1 M NaOH and centrifugated. The supernatant was mixed with 20 w/v% trichloroacetic acid. After centrifugation, the supernatant was mixed with the same volume of 0.5 mol/L NaOH, and the absorbance was measured at 560 nm. The gastric emptying rate was calculated by the following formula: […]=[1-(opticaldensity[[…])]×100

serum PTH [2] = assay: Serum PTH reduction in common marmosets; format: in vivo, common marmoset; set-up: Serum PTH levels: unit not given here
Description: The study of effect of evocalcet on emesis in common marmoset was performed by referencing a previously reported method. The marmosets (n = 24) used for this study were housed in cages (460 × 600 × 655 mm) with environmental enrichments (wooden perches, swing, and balls) and acclimated for at least 4 weeks. The marmosets were fasted from evening on the day before administration. […] The serum PTH level was measured using a Porcine Intact PTH ELISA kit (Immutopics, Inc., San Clemente, CA, USA). To evaluate the emetic effects in marmosets, evocalcet (50 or 150 μg/kg) or cinacalcet (1500 or 5000 μg/kg) was orally administered (n = 6/drug, dose down titration, n = 12 in total). The observation of emesis was conducted until 4 h after the administration.

[3] = evocalcet 0.03 mg/kg oral, 0 h (before administration), group mean, n = 10
[4] = evocalcet 0.03 mg/kg oral, 0 h (before administration), individual rats
[5] = evocalcet 0.03 mg/kg oral, 0.5 h, group mean, n = 10
[6] = evocalcet 0.03 mg/kg oral, 0.5 h, individual rats
[7] = evocalcet 0.03 mg/kg oral, 2 h, group mean, n = 10
[8] = evocalcet 0.03 mg/kg oral, 2 h, individual rats
[9] = evocalcet 0.03 mg/kg oral, 4 h, group mean, n = 10
[10] = evocalcet 0.03 mg/kg oral, 4 h, individual rats
[11] = evocalcet 0.03 mg/kg oral, 6 h, group mean, n = 10
[12] = evocalcet 0.03 mg/kg oral, 6 h, individual rats
[13] = evocalcet 0.03 mg/kg oral, 8 h, group mean, n = 10
[14] = evocalcet 0.03 mg/kg oral, 8 h, individual rats
[15] = evocalcet 0.03 mg/kg oral, 24 h, group mean, n = 10
[16] = evocalcet 0.03 mg/kg oral, 24 h, individual rats
[17] = evocalcet 0.1 mg/kg oral, 0 h (before administration), individual rats
[18] = evocalcet 0.1 mg/kg oral, 0.5 h, individual rats
[19] = evocalcet 0.1 mg/kg oral, 2 h, individual rats
[20] = evocalcet 0.1 mg/kg oral, 4 h, individual rats
[21] = evocalcet 0.1 mg/kg oral, 6 h, individual rats
[22] = evocalcet 0.1 mg/kg oral, 8 h, individual rats
[23] = evocalcet 0.1 mg/kg oral, 24 h, individual rats
[24] = single oral dose, vs vehicle group

C[C@@H](N[C@H]1CCN(c2ccc(CC(=O)O)cc2)C1)c1cccc2ccccc12 [evocalcet]
Serum PTH (serum PTH [1]; [3]): 117.288 | Serum PTH (serum PTH [1]; [4]): 129.159 and 98.086 and 98.874 and 128.658 and 81.261 and 126.366 and 104.386 and 122.715 and 112.906 and 170.470 | Serum PTH (serum PTH [1]; [5]): 51.998 | Serum PTH (serum PTH [1]; [6]): 33.535 and 36.787 and 59.553 and 50.196 and 64.403 and 70.451 and 74.902 and 34.333 and 15.500 and 80.322 | Serum PTH (serum PTH [1]; [7]): 103.394 | Serum PTH (serum PTH [1]; [8]): 15.500 and 69.801 and 132.927 and 117.200 and 119.941 and 109.480 and 83.508 and 88.630 and 158.250 and 138.699 | Serum PTH (serum PTH [1]; [9]): 147.651 | Serum PTH (serum PTH [1]; [10]): 111.671 and 66.789 and 176.435 and 179.922 and 200.545 and 117.161 and 137.784 and 93.718 and 165.530 and 226.956 | Serum PTH (serum PTH [1]; [11]): 186.457 | Serum PTH (serum PTH [1]; [12]): 167.854 and 143.511 and 260.179 and 212.225 and 211.330 and 175.263 and 176.565 and 131.380 and 164.597 and 221.669 | Serum PTH (serum PTH [1]; [13]): 183.556 | Serum PTH (serum PTH [1]; [14]): 144.862 and 141.432 and 139.974 and 226.246 and 213.297 and 177.022 and 177.107 and 148.207 and 214.155 and 253.260 | Serum PTH (serum PTH [1]; [15]): 111.913 | Serum PTH (serum PTH [1]; [16]): 85.800 and 128.079 and 93.520 and 115.512 and 45.316 and 85.890 and 75.657 and 215.959 and 131.939 and 141.454 | Serum PTH (serum PTH [1]; [17]): 112.047 and 96.726 and 90.998 and 167.821 | Serum PTH (serum PTH [1]; [18]): 33.820 and 15.500 | Serum PTH (serum PTH [1]; [19]): 42.097 and 52.053 and 15.500 | Serum PTH (serum PTH [1]; [20]): 266.348 and 163.156 and 79.252 and 192.014 | Serum PTH (serum PTH [1]; [21]): 153.036 and 149.943 and 133.171 and 173.553 | Serum PTH (serum PTH [1]; [22]): 303.000 and 168.617 and 221.701 | Serum PTH (serum PTH [1]; [23]): 120.270 and 80.325 and 122.155 | Strength of pharmacological effect relative to cinacalcet at the same dosage (serum PTH [1]; oral): approximately 30 times | Doses that significantly reduced the serum PTH level (serum PTH [1]; [24]): ≥ 0.03 mg/kg | Serum Ca (serum calcium; [3]): 10.9 | Serum Ca (serum calcium; [4]): 10.2 and 11.0 and 11.2 and 10.8 | Serum Ca (serum calcium; [5]): 11.0 | Serum Ca (serum calcium; [6]): 10.2 and 10.6 and 11.8 and 10.4 and 11.2 and 11.4 | Serum Ca (serum calcium; [7]): 10.8 | Serum Ca (serum calcium; [8]): 10.0 and 11.2 and 10.6 and 10.8 and 11.0 and 10.4 | Serum Ca (serum calcium; [9]): 10.4 | Serum Ca (serum calcium; [10]): 10.2 and 10.8 and 10.0 and 10.6 and 10.4 | Serum Ca (serum calcium; [11]): 10.3 | Serum Ca (serum calcium; [12]): 10.0 and 10.4 and 10.2 and 10.6 | Serum Ca (serum calcium; [13]): 10.5 | Serum Ca (serum calcium; [14]): 9.6 and 10.0 and 8.6 and 10.6 and 11.4 and 10.8 and 12.6 | Serum Ca (serum calcium; [15]): 10.5 | Serum Ca (serum calcium; [16]): 10.2 and 10.4 and 10.6 and 10.8 | Serum Ca (serum calcium; evocalcet 0.1 mg/kg oral, 0 h (before administration), group mean, n = 10): 10.9 | Serum Ca (serum calcium; [17]): 11.0 and 10.8 | Serum Ca (serum calcium; evocalcet 0.1 mg/kg oral, 0.5 h, group mean, n = 10): 10.7 | Serum Ca (serum calcium; [18]): 10.6 and 10.0 | Serum Ca (serum calcium; evocalcet 0.1 mg/kg oral, 2 h, group mean, n = 10): 10.1 | Serum Ca (serum calcium; [19]): 10.2 and 10.0 and 9.8 | Serum Ca (serum calcium; evocalcet 0.1 mg/kg oral, 4 h, group mean, n = 10): 9.8 | Serum Ca (serum calcium; [20]): 9.8 and 10.0 and 10.2 and 9.6 | Serum Ca (serum calcium; evocalcet 0.1 mg/kg oral, 6 h, group mean, n = 10): 9.9 | Serum Ca (serum calcium; [21]): 10.0 and 10.4 and 9.8 | Serum Ca (serum calcium; evocalcet 0.1 mg/kg oral, 8 h, group mean, n = 10): 10.6 | Serum Ca (serum calcium; [22]): 10.4 and 10.8 and 10.6 | Serum Ca (serum calcium; evocalcet 0.1 mg/kg oral, 24 h, group mean, n = 10): 11.6 | Serum Ca (serum calcium; [23]): 12.6 and 10.8 and 12.0 | Serum Ca (serum calcium; evocalcet 0.3 mg/kg oral, 0 h (before administration), individual rats): 10.4 and 10.8 and 11.2 | Serum Ca (serum calcium; evocalcet 0.3 mg/kg oral, 0.5 h, individual rats): 9.6 and 9.4 and 10.4 and 10.0 | Serum Ca (serum calcium; evocalcet 0.3 mg/kg oral, 2 h, individual rats): 9.0 and 9.2 and 9.4 and 9.8 | Serum Ca (serum calcium; evocalcet 0.3 mg/kg oral, 4 h, individual rats): 8.8 and 9.6 and 9.4 and 9.8 and 9.2 and 9.0 | Serum Ca (serum calcium; evocalcet 0.3 mg/kg oral, 6 h, individual rats): 8.6 and 9.8 and 9.6 and 9.4 and 9.0 | Serum Ca (serum calcium; evocalcet 0.3 mg/kg oral, 8 h, individual rats): 9.8 and 10.4 and 9.4 and 8.8 | Serum Ca (serum calcium; evocalcet 0.3 mg/kg oral, 24 h, individual rats): 14.8 and 11.4 and 11.0 and 11.2 | Doses that significantly reduced the serum calcium level (serum calcium; [24]): ≥ 0.1 mg/kg | Gastric Emptying (gastric emptying; 0.3 mg/kg, group mean): 67.83% | Gastric Emptying (gastric emptying; 0.3 mg/kg, individual rats): 75.29% and 74.04% and 68.43% and 31.88% and 68.64% and 79.44% and 65.73% and 79.23% | Gastric Emptying (gastric emptying; 1 mg/kg, group mean): 65.89% | Gastric Emptying (gastric emptying; 1 mg/kg, individual rats): 38.94% and 71.96% and 52.65% and 74.45% and 73.42% and 65.94% and 77.15% and 72.59% | Gastric Emptying (gastric emptying; 3 mg/kg, group mean): 61.58% | Gastric Emptying (gastric emptying; 3 mg/kg, individual rats): 69.47% and 67.19% and 53.48% and 63.03% and 78.82% and 61.16% and 64.49% and 34.99% | Dose (3 mg/kg) without delay of gastric emptying relative to the dose required for a significant PTH reduction (gastric emptying; oral): 100 fold | Effect on gastric emptying (gastric emptying; oral 0.3, 1 and 3 mg/kg (any dose)): no significant effects | Serum PTH levels (serum PTH [2]; 5 μg/kg, 1 h, individual animals): 19.1 and 25.6 and 158.9 | Serum PTH levels (serum PTH [2]; 5 μg/kg, 1 h, mean): 67.9 | Serum PTH levels (serum PTH [2]; 5 μg/kg, 4 h, individual animals): 52.9 and 115.9 and 433.3 | Serum PTH levels (serum PTH [2]; 5 μg/kg, 4 h, mean): 200.7 | Serum PTH levels (serum PTH [2]; 5 μg/kg, before administration, individual animals): 92.1 and 97.8 and 541.4 | Serum PTH levels (serum PTH [2]; 5 μg/kg, before administration, mean): 243.8 | Serum PTH levels (serum PTH [2]; 150 μg/kg, 1 h, individual animals): 36.4 and 52.9 and 258.2 | Serum PTH levels (serum PTH [2]; 150 μg/kg, 1 h, mean): 115.9 | Serum PTH levels (serum PTH [2]; 150 μg/kg, 4 h, individual animals): 81.0 and 188.4 and 311.9 | Serum PTH levels (serum PTH [2]; 150 μg/kg, 4 h, mean): 193.8 | Serum PTH levels (serum PTH [2]; 150 μg/kg, before administration, individual animals): 57.2 and 203.0 and 236.6 | Serum PTH levels (serum PTH [2]; 150 μg/kg, before administration, mean): 165.6 | Minimum effective dose on PTH reduction (serum PTH [2]; oral): 0.005 mg/kg
